Measurements as given in PMC5267425, “Identification of small molecule modulators of HIV-1 Tat and Rev protein accumulation” (Retrovirology, 2017).

System: alternative splicing of host transcripts in HeLa rtTA HIV∆Mls cells
Assay: RT-PCR of host alternative splicing events (PSI), capillary electrophoresis
Format: cell-based
Experimental: To assess the effect of compounds on expression/alternative splicing of cellular RNA, two approaches were used. For both, total RNA was prepared from DMSO or compound-treated cells. In the first assay, samples were assayed by medium throughput RT-PCR to determine the inclusion levels of alternatively spliced exons and splice sites located in 73 selected events. 73 primer sets containing a fluorescently (5-FAM) labeled primer for each, were used in RT-PCR. PCR products generated were denatured in formamide and quantified using ABI Prism capillary sequencer (Life Technologies). The fragment analysis was performed on the PeakScanner software (Life Technologies) in batch mode and automated using custom scripts written in Python. The inclusion level of each exon was calculated as the amount of transcripts carrying the alternative exon relative to the total amount of all transcripts detected in the PCR reaction and results are summarized for compound-treatment in comparison to DMSO treatment. In the second assay, extracted RNA was processed using the Illumina TruSeq RNA Sample Preparation Kit (Illumina) according to the manufacturer’s instructions. The cDNA library generated was validated (passed quality control on a Bioanalyzer 1000 DNA chip (Agilent)), normalized and pooled for cluster generation. cDNA libraries were sequenced on the Illumina HiSeq 2500 (paired-end, 125 bp) with version 4 chemistry following manufacturer’s protocols. The full human genome and transcriptomic sequences were downloaded from the UCSC Genome Browser (genome.ucsc.edu) database and Ensembl (www.ensembl.org), respectively, as described by Irimia et al.. Exon annotations and genomic coordinates for alternative splicing (AS) analysis were derived from tables downloaded from the UCSC Genome Browser database. To determine gene expression (GE) or alternative splicing (AS) changes in an unbiased way, the effective number of unique mappable positions in each transcript (i.e. the effective length) was determined by aligning sequences with unique transcriptomic alignment to the human genome using Bowtie. Reads with one unique genomic alignment were then aligned against the canonical transcriptome and, for each transcript, the number of reads with one unique transcriptomic alignment were counted. The expression level of genes was quantified as corrected ‘reads per kilobase of exon model per million mapped reads’ (cRPKM), a widely used metric to estimate gene expression levels. The expression cutoff was 0.5 cRPKM, corresponding to the transcript of the gene being present if there were ≥10 reads that mapped uniquely to a single genomic locus. Approximately 19,847 Ensembl annotated protein-coding genes were compared to create a gene list of differentially expressed genes. Genes were considered differentially expressed if fold changes in cRPKM was ≥2 in compound-treated versus DMSO-treated samples.

[1] = of 70 AS events, 791 30 µM, 833 2 µM

## Cc1cc(NCc2cccnc2)n2ncc(-c3ccc(Cl)cc3)c2n1 [Compound 791, 3-(4-chlorophenyl)-5-methyl-N-(3-pyridinylmethyl)pyrazolo[1,5-a]pyrimidin-7-amine]
9147791 minus DMSO, mean n=3
  DPSI AGPAT4_1 chr6:161506598-161506735: -4.00%
  DPSI AGPAT4_1 chr6:161507269-161507439: -6.33%
  DPSI APLP2_1 chr11:129498717-129498884: 1.33%
  DPSI APP_1 chr21:26291546-26291602: 0.33%
  DPSI APP_1 chr21:26294201-26294368: -1.33%
  DPSI ATP6V0A1_1 chr17:37919833-37920004: 2.00%
  DPSI CA12_1 chr15:61406400-61406485: -0.33%
  DPSI CA12_1 chr15:61407349-61407382: 4.67%
  DPSI CASP9_1 chr1:15703693-15703840*: -1.33%
  DPSI CAST_1 chr5:96090613-96090669: 5.33%
  DPSI CLSTN1_1 chr1:9720143-9720199: -8.67%
  DPSI CLSTN1_2 chr1:9739126-9739155: -2.33%
  DPSI CRBN_1 chr3:3191846-3191950: 0.00%
  DPSI CRBN_1 chr3:3191950-3191953: 0.00%
  DPSI CTNND1_1 chr11:57318058-57318129: -4.33%
  DPSI DNM1L_1 chr12:32782066-32782143: 9.00%
  DPSI DNM1L_1 chr12:32782465-32782497: -2.00%
  DPSI DRCTNNB1A_1 chr7:22953096-22953391: -8.00%
  DPSI EIF4A2_1 chr7:187988792-187988899: 3.33%
  DPSI EIF4A2_1 chr7:187988899-187988904: 2.00%
  DPSI EIF4H_1 chr7:73242512-73242572: 0.00%
  DPSI ERC1_1 chr12:1091641-1091725: 2.67%
  DPSI EXOC7_1 chr17:71598005-71598035: -6.00%
  DPSI EXOC7_1 chr17:71598819-71598911: -4.67%
  DPSI FAM62B_1 chr7:158238233-158238295: -8.33%
  DPSI FAM104A_1 chr17:68720412-68720474: -1.00%
  DPSI FGFR1OP2_1 chr12:27004715-27004828: -11.00%
  DPSI FIP1L1_1 chr4:53975538-53975646: -4.33%
  DPSI GGCT_1 chr7:30504943-30505080: 3.33%
  DPSI GGCT_1 chr7:30506676-30506822: 3.33%
  DPSI GLK_1 chr2:39388587-39388650: -0.33%
  DPSI GM130_1 chr9:130069293-130069374: -9.67%
  DPSI GRB10_1 chr7:50651400-50651538: -0.33%
  DPSI KIF13A_1 chr6:17879324-17879428: -1.33%
  DPSI MACF1_1 chr1:39616720-39616782: 3.33%
  DPSI MACF1_5 chr1:39719179-39719289: -13.67%
  DPSI MAP3K7_1 chr6:91310992-91311072: 0.33%
  DPSI MARK3_1 chr14:103034592-103034618: -2.67%
  DPSI MARK3_1 chr14:103036246-103036290: -1.33%
  DPSI MBD1_1 chr18:46054554-46054721: -9.33%
  DPSI MBNL2_1 chr13:96807051-96807104: 0.33%
  DPSI MFF_1 chr2:227901637-227901749: 4.33%
  DPSI MRIP_1 chr17:17024646-17024708: 1.00%
  DPSI MVK_1 chr12:108501990-108502134: 11.00%
  DPSI MVK_1 chr12:108503583-108503738: 20.33%
  DPSI NAP1L1_1 chr12:74747418-74747520: 4.67%
  DPSI NAP1L1_1 chr12:74748956-74749041: 4.33%
  DPSI NPHP3_1 chr3:133898264-133898347: -1.00%
  DPSI NUMB_2 chr14:72815742-72815885: 0.67%
  DPSI NUMB_2 chr14:72820542-72820835: 6.67%
  DPSI PDCL_1 chr9:124628716-124628892: 1.33%
  DPSI POLDIP3_1 chr22:41327919-41328006: -3.67%
  DPSI POMT1_1 chr9:133368281-133368521: 5.67%
  DPSI POMT1_1 chr9:133371321-133371428: 5.67%
  DPSI RAI14_1 chr5:34849436-34849522: 3.67%
  DPSI RAN_1 chr12:129923082-129923127: -2.00%
  DPSI RPS24_1 chr10:79467729-79467746: 1.67%
  DPSI SEC24B_1 chr4:110622281-110622386: -4.00%
  DPSI SETD5_1 chr3:9453533-9453572: -1.33%
  DPSI SMN2_1 chr5_h2_hap1:475625-475826: 0.33%
  DPSI SMN2_2 chr5_h2_hap1:466192-466246: 1.67%
  DPSI SPAG9_1 chr17:46408223-46408261: -6.67%
  DPSI SRPK2_1 chr2:104553464-104553557: -1.00%
  DPSI SRPK2_1 chr2:104553930-104554023: 0.00%
  DPSI TPM1_1 chr15:61140450-61140525: 1.67%
  DPSI TPM1_1 chr15:61140965-61141040: -1.67%
  DPSI TRIM37_1 chr17:54433741-54433857: -4.67%
  DPSI ZNF827_1 chr4:146903692-146903724: 2.33%
  DPSI ZNF827_1 chr4:146905581-146905589: -1.00%
[1]
  AS events with DPSI ≤ -10%: 2
  AS events with DPSI ≥ 10%: 0
  AS events with P ≤ 0.05: 9
